Here are results for three compounds from US9358232B2, “Methods for treating cancer using TOR kinase inhibitor combination therapy” (Signal Pharmaceuticals, LLC, priority 2013, dated 2016).

The subject of data set [1] is WSU-DLCL2 xenograft. Put plainly: DLBCL xenograft model. As to conditions: for tumor volume reduction (TVR): Day 35, end of 3-week dosing, vs vehicle control (FIG. 1); for decrease in tumor volume (TVR): Day 34, vs vehicle, Compound 1 10 mg/kg QD, Compound A 30 mg/kg QD, alone or combined (FIGS. 2-3). Format: in vivo, SCID mice. As for the experimental part: Severe combined immunodeficiency (SCID) mice were implanted with human DLBCL cell line (WSU-DLCL2) into the flank. Treatment of compounds started between Day 11 and Day 14 after cell inoculation. Randomized groups of mice (n=9 to 10/group) were treated with the single agents (Compound 1, Compound A or Compound AA) or the combination of Compound 1/Compound A, Compound A/Compound AA, or Compound 1/Compound AA. Compounds were administered orally on a once daily (Compound 1 and Compound A) or twice daily […] schedule for 21 days. The positive control consisted of CHOP therapy (combination of cyclophosphamide, doxorubicin, vincristine and prednisone). Compound 1 and Compound A were formulated in CMC-Tween (carboxymethylcellulose/Tween 80/deionized water). Compound AA was suspended in DSP (dimethylsulphoxide/solutol/phosphate buffered saline).
Initial studies were conducted in order to determine the antitumor activity of Compound 1 and to identify a dose level for the combination studies. In the WSU-DLCL2 xenograft model, Compound 1 inhibited tumor growth in a dose-dependent fashion. […] In a subsequent combination study, Compound 1 was dosed at 10 mg/kg, once daily (QD). Compound A and Compound AA were dosed at 30 mg/kg (QD) and 50 mg/kg (BID), respectively.

The subject of data set [2] is B-cell. As to conditions: cited from earlier work.
The target of data set [3] is BTK (Homo sapiens, UniProt Q06187). The settings on record: enzymatic and cellular assays; cited from earlier work.
[4] abbreviates: combination study, Compound AA 50 mg/kg BID.
Where [5] appears, read: combination study, single agents or in combination.

Structures are written as SMILES. Entries after “also recorded” stand apart in the source; their conditions may differ.

Sequence of BTK (Q06187 whole entry): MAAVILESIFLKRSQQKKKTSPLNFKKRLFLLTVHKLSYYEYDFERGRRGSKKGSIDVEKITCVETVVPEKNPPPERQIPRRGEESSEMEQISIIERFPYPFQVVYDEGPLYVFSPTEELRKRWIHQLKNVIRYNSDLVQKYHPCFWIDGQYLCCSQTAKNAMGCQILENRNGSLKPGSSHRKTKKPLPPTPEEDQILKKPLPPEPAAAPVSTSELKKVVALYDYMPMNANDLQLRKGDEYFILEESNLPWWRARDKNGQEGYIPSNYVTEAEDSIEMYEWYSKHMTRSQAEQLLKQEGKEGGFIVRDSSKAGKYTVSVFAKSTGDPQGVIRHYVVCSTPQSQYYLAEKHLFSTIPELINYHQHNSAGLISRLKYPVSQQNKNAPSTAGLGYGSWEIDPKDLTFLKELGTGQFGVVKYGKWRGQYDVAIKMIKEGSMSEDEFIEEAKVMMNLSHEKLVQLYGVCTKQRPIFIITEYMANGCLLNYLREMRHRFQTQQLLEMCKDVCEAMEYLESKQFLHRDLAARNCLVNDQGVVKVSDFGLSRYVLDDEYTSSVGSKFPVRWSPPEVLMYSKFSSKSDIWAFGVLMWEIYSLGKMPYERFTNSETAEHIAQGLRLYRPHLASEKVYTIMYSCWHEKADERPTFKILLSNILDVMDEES

Regarding `CO[C@H]1CC[C@H](N2C(=O)CNc3ncc(-c4ccc(C(C)(C)O)nc4)nc32)CC1` [Compound 1, 7-(6-(2-hydroxypropan-2-yl)pyridin-3-yl)-1-((1r,4r)-4-methoxycyclohexyl)-3,4-dihydropyrazino-[2,3-b]pyrazin-2(1H)-one], the “tumor volume reduction (TVR)” value in data set [1] (1 mg/kg oral once daily) is recorded as roughly 22%; in data set [1] (3 mg/kg oral once daily) it was roughly 28%. In addition, the “decrease in tumor volume (TVR)” value in data set [1] (setting [4]) is reported as 29%. The body weight loss result is “No significant body weight loss” in data set [1] (setting [5]); “No significant body weight loss” in data set [1] (initial dose study, 1, 3 and 10 mg/kg (FIG. 1)).

Turning to `Cc1nc2cccc(N)c2c(=O)n1C1CCC(=O)NC1=O` (centres unmarked) [Compound A, 3-(5-Amino-2-methyl-4-oxoquinazolin-3(4H)-yl)-piperidine-2,6-dione], the “decrease in tumor volume (TVR)” value in data set [1] (setting [4]) stood at 30%. The body weight loss result in data set [1] (setting [5]) is listed as “No significant body weight loss”.

As for `C=CC(=O)Nc1cccc(Nc2nc(Nc3ccc(OCCOC)cc3)ncc2F)c1` [Compound AA, N-(3-(5-fluoro-2-(4-(2-methoxyethoxy)phenylamino)pyrimidin-4-ylamino)phenyl)acrylamide], the “effect on B-cell proliferation and activation” value in data set [2] was “inhibit B-cell proliferation and activation”. Further, the “antitumor activity as single agent” value in data set [1] (setting [4]) was “No significant antitumor activity; also recorded: inactive”. Besides, in data set [1] (setting [5]), the body weight loss entry is “No significant body weight loss”. Moreover, the “inhibition of BTK” value in data set [3] is listed as “covalent, irreversible inhibition of BTK”.
